Columns and labels:
Conditions in all cases: 4-nitrothiophenol as nucleophile; 400 μM thiamine; pH 7.2, 37 °C
[1] = target: T1, MxThi1 (Myxococcus xanthus, UniProt Q1D3T2); experiment: thiaminase I activity assay, 4-nitrothiophenol consumption at […] nm; format: biochemical
T1 construct: gene MXAN_4523
T1 sequence (Q1D3T2 36-418): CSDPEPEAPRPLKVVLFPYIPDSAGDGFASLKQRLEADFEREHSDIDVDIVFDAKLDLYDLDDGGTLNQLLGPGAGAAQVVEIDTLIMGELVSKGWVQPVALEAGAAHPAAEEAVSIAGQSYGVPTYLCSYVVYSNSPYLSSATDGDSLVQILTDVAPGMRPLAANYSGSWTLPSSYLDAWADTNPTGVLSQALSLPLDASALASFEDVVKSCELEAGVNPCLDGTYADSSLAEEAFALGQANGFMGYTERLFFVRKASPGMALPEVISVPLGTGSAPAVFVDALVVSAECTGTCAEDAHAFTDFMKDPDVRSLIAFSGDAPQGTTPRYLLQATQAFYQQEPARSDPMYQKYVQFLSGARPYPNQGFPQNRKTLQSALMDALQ

[2] = target: T2, AcThi1 (Archangium violaceum, UniProt A0ACG8CQS0); experiment: as above; format: biochemical
T2 construct: gene JRI60_22580
T2 sequence (A0ACG8CQS0 24-424): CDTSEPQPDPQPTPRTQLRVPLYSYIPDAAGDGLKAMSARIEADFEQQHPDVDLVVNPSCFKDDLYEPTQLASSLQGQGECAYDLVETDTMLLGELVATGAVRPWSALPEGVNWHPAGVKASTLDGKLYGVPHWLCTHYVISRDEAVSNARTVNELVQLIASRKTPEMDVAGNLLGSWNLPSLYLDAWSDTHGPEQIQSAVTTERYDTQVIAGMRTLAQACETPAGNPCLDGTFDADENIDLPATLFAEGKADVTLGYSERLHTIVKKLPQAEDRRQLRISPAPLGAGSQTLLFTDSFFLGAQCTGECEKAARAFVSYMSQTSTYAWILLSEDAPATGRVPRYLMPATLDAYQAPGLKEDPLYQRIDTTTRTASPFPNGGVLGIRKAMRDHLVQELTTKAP

[3] = target: T3, CbThi1 (Clostridium botulinum, UniProt A5HZW3)
T3 construct: gene CBO0770
T3 sequence (A5HZW3 32-404 limits assumed): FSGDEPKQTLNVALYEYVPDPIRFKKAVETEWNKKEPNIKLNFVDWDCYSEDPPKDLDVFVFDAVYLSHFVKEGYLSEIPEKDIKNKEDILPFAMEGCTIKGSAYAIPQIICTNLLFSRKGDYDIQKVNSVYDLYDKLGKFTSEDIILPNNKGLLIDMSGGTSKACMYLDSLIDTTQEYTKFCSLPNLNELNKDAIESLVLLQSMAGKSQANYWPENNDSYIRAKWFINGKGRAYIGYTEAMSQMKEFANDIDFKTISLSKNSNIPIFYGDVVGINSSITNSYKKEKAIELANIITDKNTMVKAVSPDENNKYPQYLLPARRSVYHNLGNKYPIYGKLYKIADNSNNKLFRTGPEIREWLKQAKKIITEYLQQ

Cc1ncc(C[n+]2csc(CCO)c2C)c(N)n1 [thiamine]
thiaminase I activity assay, 4-nitrothiophenol consumption at 411 nm [1]: All these recombinant proteins exhibited thiaminase I activity
thiaminase I activity assay, 4-nitrothiophenol consumption at 411 nm [2]: All these recombinant proteins exhibited thiaminase I activity
thiaminase I activity assay, 4-nitrothiophenol consumption at 411 nm [3]: All these recombinant proteins exhibited thiaminase I activity

From PMC10499793 (Nature Communications, 2023)
